Test: Odor detection threshold (ODT) by olfactometer TO8 and a panel of experts according to EN 13725
Conditions: for ODT (exp.) (−log): odor detection threshold as −log; for ODT (exp.) / ODT* (exp.) (ppm (v/v)): odor detection threshold, olfactometer TO8, expert panel, EN 13725
Experimental: The ODT was measured by an olfactometer TO8 and a panel of experts according to standard EN 13725.

| SMILES | ODT (exp.) (−log) | ODT (exp.) [ng/L] | ODT* (exp.) (ppm (v/v)) | factor by which threshold value is lower than Brahmanol (in comparison with Brahmanol) |
| --- | --- | --- | --- | --- |
| CC1=CCC(CCC(C)CO)C1(C)C (stereo not shown) [Brahmanol, 2-methyl-4-(2′,2′,3′-trimethyl-3′-cyclopenten-1′-yl)-butan-1-ol, reference compound] | 6.85E+00 | 141.22 | 1.73E−02 ppm (v/v) | – |
| C=C(CO)CCC1CC=C(C)C1(C)C (stereo not shown) [Compound A, 2-methylene-4-(2,2,3-trimethylcyclopent-3-en-1-yl)butan-1-ol] | 8.36E+00 | 4.34 | 5.37E−04 ppm (v/v) | about 35 |

From US12410113B2, “Sandalwood-type fragrance compounds” (SYMRISE AG, priority 2019, dated 2025)
